Results taken from patent publication US11524968B2, “Heterocyclic compound as a protein kinase inhibitor” (HK inno.N Corporation, priority 2017, dated 2022).
pIC50: −log10 of the molar value.

Target: JAK1 (Homo sapiens (Human), UniProt P23458)
Assay: Analysis of JAK1 activity inhibition ability (ADP-Glo Kinase Assay)
Assay type: biochemical
Settings: JAK1 enzyme, ADP-Glo luminescence, ATP 250 uM, IRS-itide substrate, 30° C. 40 minutes; read-out: IC50
Outline: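 ADP-Glo luminescence read-out of ADP production, with IC50 taken as the concentration halving JAK1 activity relative to control. Enzyme was incubated 40 min at 30 °C with compound, IRS-itide (40 ng/mL) and ATP (250 uM), concentrations as prepared in pH 7.5 Tris-HCl/MgCl2/BSA/DTT buffer.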

Chain of JAK1 (P23458 whole entry): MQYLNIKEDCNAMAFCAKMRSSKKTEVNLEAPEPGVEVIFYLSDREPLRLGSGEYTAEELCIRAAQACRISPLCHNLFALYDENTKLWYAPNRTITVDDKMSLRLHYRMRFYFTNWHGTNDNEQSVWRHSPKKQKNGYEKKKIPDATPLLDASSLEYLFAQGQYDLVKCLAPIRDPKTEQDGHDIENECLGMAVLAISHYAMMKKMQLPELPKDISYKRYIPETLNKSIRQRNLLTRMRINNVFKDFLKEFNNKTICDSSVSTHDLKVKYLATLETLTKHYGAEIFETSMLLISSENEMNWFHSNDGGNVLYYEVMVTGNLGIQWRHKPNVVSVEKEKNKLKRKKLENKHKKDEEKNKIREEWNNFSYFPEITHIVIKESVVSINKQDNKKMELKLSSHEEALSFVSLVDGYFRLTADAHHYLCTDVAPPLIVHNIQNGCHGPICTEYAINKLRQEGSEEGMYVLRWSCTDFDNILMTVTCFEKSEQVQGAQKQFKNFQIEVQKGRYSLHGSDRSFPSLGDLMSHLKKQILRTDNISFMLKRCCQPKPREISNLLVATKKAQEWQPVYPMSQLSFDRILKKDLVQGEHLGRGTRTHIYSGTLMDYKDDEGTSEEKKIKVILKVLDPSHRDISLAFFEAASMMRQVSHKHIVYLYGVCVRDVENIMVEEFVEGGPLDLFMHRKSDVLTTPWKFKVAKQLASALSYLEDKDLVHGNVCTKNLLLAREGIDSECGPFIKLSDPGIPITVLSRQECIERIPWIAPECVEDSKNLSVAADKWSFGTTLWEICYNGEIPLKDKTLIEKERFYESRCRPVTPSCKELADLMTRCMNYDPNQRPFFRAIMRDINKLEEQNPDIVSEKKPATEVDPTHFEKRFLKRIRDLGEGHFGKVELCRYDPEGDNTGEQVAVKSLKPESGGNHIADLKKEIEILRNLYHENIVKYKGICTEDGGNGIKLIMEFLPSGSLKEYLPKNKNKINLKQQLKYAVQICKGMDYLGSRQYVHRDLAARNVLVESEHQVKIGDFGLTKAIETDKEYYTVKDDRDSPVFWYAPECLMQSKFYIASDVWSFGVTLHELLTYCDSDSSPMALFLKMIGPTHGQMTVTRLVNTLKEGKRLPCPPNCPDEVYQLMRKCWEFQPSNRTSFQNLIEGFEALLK

Structure (SMILES) | pIC50
O=C(Nc1nc(-c2ccc(NS(=O)(=O)N3CCOCC3)cc2)c2cc[nH]c2n1)C1CC1 [Example 235, N-(4-(4-(morpholine-4-sulfonamido)phenyl)-7H-pyrrolo[2,3-d]pyrimidin-2-yl)cyclopropanecarboxamide] | 6.70 to 7.70
CN(C)S(=O)(=O)Nc1ccc(-c2nc(NC(=O)C3CC3)nc3[nH]ccc23)cc1 [Example 236, N-(4-(4-((N,N-dimethylsulfamoyl)amino)phenyl)-7H-pyrrolo[2,3-d]pyrimidin-2-yl)cyclopropanecarboxamide] | 6.70 to 7.70
CC1CN(S(=O)(=O)Nc2ccc(-c3nc(NC(=O)C4CC4)nc4[nH]ccc34)cc2)CC(C)O1 (stereo not shown) [Example 237, N-(4-(4-((2,6-dimethylmorpholine)-4-sulfonamido)phenyl)-7H-pyrrolo[2,3-d]pyrimidin-2-yl)cyclopropanecarboxamide] | < 6.70
O=C(Nc1nc(-c2ccc(NS(=O)(=O)N3CCOCC3)cc2)c2nc[nH]c2n1)C1CC1 [Example 238, N-(6-(4-(morpholine-4-sulfonamido)phenyl)-9H-purin-2-yl)cyclopropanecarboxamide] | < 6.70
N#CCC(=O)Nc1ccc(-c2cc(NC(=O)C3CC3)nc3[nH]ccc23)cc1 [Example 239, N-(4-(4-(2-cyanoacetamido)phenyl)-1H-pyrrolo[2,3-b]pyridine-6-yl)cyclopropanecarboxamide] | 6.70 to 7.70
Cc1cc(NC(=O)CC#N)ccc1-c1cc(NC(=O)C2CC2)nc2[nH]ccc12 [Example 240, N-(4-(4-(2-cyanoacetamido)-2-methylphenyl)-1H-pyrrolo[2,3-b]pyridin-6-yl)cyclopropanecarboxamide] | < 6.70
N#CC1(CC(=O)Nc2ccc(-c3cc(NC(=O)C4CC4)nc4[nH]ccc34)cc2)CC1 [Example 241, N-(4-(4-(2-(1-cyanocyclopropyl)acetamido)phenyl)-1H-pyrrolo[2,3-b]pyridin-6-yl)cyclopropanecarboxamide] | 6.70 to 7.70
O=C(NC1CC=C(c2cc(NC(=O)C3CC3)nc3[nH]ccc23)CC1)c1ccccc1 (stereo not shown) [Example 243, N-(4-(6-(cyclopropanecarboxamido)-1H-pyrrolo[2,3-b]pyridin-4-yl)cyclohex-3-en-1-yl)benzamide] | 6.70 to 7.70
O=C(Nc1cc(C2=CCC(NC(=O)C3CC3)CC2)c2cc[nH]c2n1)C1CC1 (stereo not shown) [Example 246, N-(4-(6-(cyclopropanecarboxamido)-1H-pyrrolo[2,3-b]pyridin-4-yl)cyclohex-3-en-1-yl)cyclopropanecarboxamide] | 6.70 to 7.70
O=C(Nc1cc(C2=CCN(C(=O)C3CCS(=O)(=O)CC3)CC2)c2cc[nH]c2n1)C1CC1 [Example 249, N-(4-(1-(1,1-dioxidotetrahydro-2H-thiopyran-4-carbonyl)-1,2,3,6-tetrahydropyridin-4-yl)-1H-pyrrolo[2,3-b]pyridin-6-yl)cyclopropanecarboxamide] | 6.70 to 7.70
O=C(Nc1cc(C2=CCN(C(=O)CN3CCS(=O)(=O)CC3)CC2)c2cc[nH]c2n1)C1CC1 [Example 251, N-(4-(1-(2-(1,1-dioxidothiomorpholino)acetyl)-1,2,3,6-tetrahydropyridin-4-yl)-1H-pyrrolo[2,3-b]pyridin-6-yl)cyclopropanecarboxamide] | 6.70 to 7.70
N#CCCC(=O)N1C2C=C(c3cc(NC(=O)C4CC4)nc4[nH]ccc34)CC1CC2 (stereo not shown) [Example 255, N-(4-(8-(3-cyanopropanoyl)-8-azabicyclo[3.2.1]oct-2-en-3-yl)-1H-pyrrolo[2,3-b]pyridin-6-yl)cyclopropanecarboxamide] | > 7.70
O=C(Nc1cc(C2=CC3CCC(C2)N3C(=O)C2CC2)c2cc[nH]c2n1)C1CC1 (stereo not shown) [Example 256, N-(4-(8-(cyclopropanecarbonyl)-8-azabicyclo[3.2.1]oct-2-en-3-yl)-1H-pyrrolo[2,3-b]pyridin-6-yl)cyclopropanecarboxamide] | > 7.70
N#CCC(=O)N1C2C=C(c3cc(NC(=O)C4CC4)nc4[nH]ccc34)CC1CC2 (stereo not shown) [Example 257, N-(4-(8-(2-cyanoacetyl)-8-azabicyclo[3.2.1]oct-2-en-3-yl)-1H-pyrrolo[2,3-b]pyridin-6-yl)cyclopropanecarboxamide] | > 7.70
O=C(Nc1cc(C2=CC3CCC(C2)N3C(=O)CCC(F)(F)F)c2cc[nH]c2n1)C1CC1 (stereo not shown) [Example 258, N-(4-(8-(4,4,4-trifluorobutanoyl)-8-azabicyclo[3.2.1]oct-2-en-3-yl)-1H-pyrrolo[2,3-b]pyridin-6-yl)cyclopropanecarboxamide] | > 7.70

The remaining lines, values ahead:

pIC50 | Structure (SMILES)
6.70 to 7.70 | O=C(Nc1cc(C2=CCN(S(=O)(=O)N3CCOCC3)CC2)c2cc[nH]c2n1)C1CC1 [Example 234, N-(4-(1-(morpholinosulfonyl)-1,2,3,6-tetrahydropyridin-4-yl)-1H-pyrrolo[2,3-b]pyridin-6-yl)cyclopropanecarboxamide]
< 6.70 | CCC(=O)NC1CC=C(c2cc(NC(=O)C3CC3)nc3[nH]ccc23)CC1 (stereo not shown) [Example 242, N-(4-(4-propionamidocyclohex-1-en-1-yl)-1H-pyrrolo[2,3-b]pyridin-6-yl)cyclopropanecarboxamide]
< 6.70 | CC1CC1C(=O)NC1CC=C(c2cc(NC(=O)C3CC3)nc3[nH]ccc23)CC1 (stereo not shown) [Example 244, N-(4-(6-(cyclopropanecarboxamido)-1H-pyrrolo[2,3-b]pyridin-4-yl)cyclohex-3-en-1-yl)-2-methylcyclopropane-1-carboxamide]
6.70 to 7.70 | O=C(Nc1cc(C2=CCC(NC(=O)C3CCCC3)CC2)c2cc[nH]c2n1)C1CC1 (stereo not shown) [Example 245, N-(4-(6-(cyclopropanecarboxamido)-1H-pyrrolo[2,3-b]pyridin-4-yl)cyclohex-3-en-1-yl)cyclopentanecarboxamide]
6.70 to 7.70 | N#CCC(=O)NC1CC=C(c2cc(NC(=O)C3CC3)nc3[nH]ccc23)CC1 (stereo not shown) [Example 247, N-(4-(4-(2-cyanoacetamido)cyclohex-1-en-1-yl)-1H-pyrrolo[2,3-b]pyridin-6-yl)cyclopropanecarboxamide]
< 6.70 | O=C(CCC(F)(F)F)NC1CC=C(c2cc(NC(=O)C3CC3)nc3[nH]ccc23)CC1 (stereo not shown) [Example 248, N-(4-(4-(4,4,4-trifluorobutanamido)cyclohex-1-en-1-yl)-1H-pyrrolo[2,3-b]pyridin-6-yl)cyclopropanecarboxamide]
> 7.70 | N#CCC(=O)N1CC=C(c2cc(NC(=O)C3CC3)nc3[nH]ccc23)CC1 [Example 250, N-(4-(1-(2-cyanoacetyl)-1,2,3,6-tetrahydropyridin-4-yl)-1H-pyrrolo[2,3-b]pyridin-6-yl)cyclopropanecarboxamide]
> 7.70 | N#CCCC(=O)N1CC=C(c2cc(NC(=O)C3CC3)nc3[nH]ccc23)CC1 [Example 252, N-(4-(1-(3-cyanopropanoyl)-1,2,3,6-tetrahydropyridin-4-yl)-1H-pyrrolo[2,3-b]pyridin-6-yl)cyclopropanecarboxamide]
6.70 to 7.70 | O=C(Nc1cc(C2=CCN(C(=O)CC(F)(F)F)CC2)c2cc[nH]c2n1)C1CC1 [Example 253, N-(4-(1-(3,3,3-trifluoropropanoyl)-1,2,3,6-tetrahydropyridin-4-yl)-1H-pyrrolo[2,3-b]pyridin-6-yl)cyclopropanecarboxamide]
6.70 to 7.70 | O=C(Nc1cc(C2=CCN(C(=O)CCC(F)(F)F)CC2)c2cc[nH]c2n1)C1CC1 [Example 254, N-(4-(1-(4,4,4-trifluorobutanoyl)-1,2,3,6-tetrahydropyridin-4-yl)-1H-pyrrolo[2,3-b]pyridin-6-yl)cyclopropanecarboxamide]
